Data on 34 molecules can be found in patent US8921376B2, “Pyrrolopyridines useful as inhibitors of protein kinase” (Vertex Pharmaceuticals Incorporated, priority 2005, dated 2014).

A value given as a limit tells only on which side of the number the result lay.

Common to all, as to format: biochemical
The target in assay [1] is T1, JAK3 (Homo sapiens, UniProt P52333).
T1 sequence (P52333 1-1124): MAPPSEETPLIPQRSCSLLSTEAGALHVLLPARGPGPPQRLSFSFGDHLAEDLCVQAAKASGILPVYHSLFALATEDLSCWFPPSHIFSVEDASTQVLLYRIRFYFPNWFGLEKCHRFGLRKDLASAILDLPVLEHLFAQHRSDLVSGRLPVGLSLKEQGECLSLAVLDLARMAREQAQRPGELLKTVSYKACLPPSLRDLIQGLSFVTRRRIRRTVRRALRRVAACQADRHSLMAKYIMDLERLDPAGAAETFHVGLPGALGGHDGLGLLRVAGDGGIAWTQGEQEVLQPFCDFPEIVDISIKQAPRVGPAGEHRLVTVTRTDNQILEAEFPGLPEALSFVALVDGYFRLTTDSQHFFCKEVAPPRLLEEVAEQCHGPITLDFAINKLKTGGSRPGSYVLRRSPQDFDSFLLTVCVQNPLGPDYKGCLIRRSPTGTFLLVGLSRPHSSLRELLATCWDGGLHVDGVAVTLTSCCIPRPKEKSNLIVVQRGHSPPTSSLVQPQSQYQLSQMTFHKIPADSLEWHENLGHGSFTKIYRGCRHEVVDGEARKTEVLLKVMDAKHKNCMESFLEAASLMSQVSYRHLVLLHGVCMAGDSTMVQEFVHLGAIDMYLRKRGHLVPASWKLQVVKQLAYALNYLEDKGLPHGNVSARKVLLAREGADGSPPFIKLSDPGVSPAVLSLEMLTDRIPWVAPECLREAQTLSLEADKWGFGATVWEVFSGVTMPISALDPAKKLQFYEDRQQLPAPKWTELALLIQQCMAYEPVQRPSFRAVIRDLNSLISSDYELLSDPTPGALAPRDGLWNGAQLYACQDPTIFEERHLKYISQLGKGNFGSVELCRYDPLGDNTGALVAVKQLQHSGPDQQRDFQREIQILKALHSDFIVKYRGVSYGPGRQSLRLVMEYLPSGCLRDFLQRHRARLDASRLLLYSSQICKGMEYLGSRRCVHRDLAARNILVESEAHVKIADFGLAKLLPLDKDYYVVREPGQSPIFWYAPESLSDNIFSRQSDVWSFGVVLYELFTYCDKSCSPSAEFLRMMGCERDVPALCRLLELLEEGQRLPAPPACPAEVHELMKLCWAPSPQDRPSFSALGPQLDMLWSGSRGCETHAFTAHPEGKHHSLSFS
Nature of the assay: JAK3 inhibition assay (33P incorporation into poly(Glu)4Tyr). In outline: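 After TCA quench and filter harvest, scintillation counting of 33P measured phosphorylation of poly(Glu)4Tyr (1 μM) by 1 nM JAK3. The 20-min, 25° C. reaction contained 5 μM ATP (200 μCi/μmole) in pH 7.4 HEPES buffer with 10 mM MgCl2.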

Assay [2] has as its target JAK2 (Homo sapiens, UniProt O60674). Nature of the assay: JAK2 inhibition assay (as Example 3 with JAK-2 enzyme). In outline:
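In HEPES pH 7.4 buffer with 10 mM MgCl2, 1 mM DTT, 25 mM NaCl and 0.01% BSA, JAK2 enzyme phosphorylated poly(Glu)4Tyr (final 15 μM) using 33P-ATP (final 12 μM) for 20 min at room temperature (25 °C). Reactions stopped with TCA; incorporated 33P measured by scintillation after filtration.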

The target of assay [3] is ROCK I (Homo sapiens, UniProt Q13464). Briefly: ROCK-I inhibition assay (radioactive enzyme assay, MBP substrate). The method, boiled down: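 Human ROCK at 5 nM phosphorylated 27 μM myelin basic protein with 13 μM [γ-33P]ATP (final) in HEPES pH 7.5, MgCl2, NaCl, DTT and 1.5% DMSO. Reactions ran 2 h at room temperature before TCA quench and filter-plate scintillation counting. After background subtraction, data were fit to give Ki(app).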
Sequence of ROCK I (Q13464 whole entry): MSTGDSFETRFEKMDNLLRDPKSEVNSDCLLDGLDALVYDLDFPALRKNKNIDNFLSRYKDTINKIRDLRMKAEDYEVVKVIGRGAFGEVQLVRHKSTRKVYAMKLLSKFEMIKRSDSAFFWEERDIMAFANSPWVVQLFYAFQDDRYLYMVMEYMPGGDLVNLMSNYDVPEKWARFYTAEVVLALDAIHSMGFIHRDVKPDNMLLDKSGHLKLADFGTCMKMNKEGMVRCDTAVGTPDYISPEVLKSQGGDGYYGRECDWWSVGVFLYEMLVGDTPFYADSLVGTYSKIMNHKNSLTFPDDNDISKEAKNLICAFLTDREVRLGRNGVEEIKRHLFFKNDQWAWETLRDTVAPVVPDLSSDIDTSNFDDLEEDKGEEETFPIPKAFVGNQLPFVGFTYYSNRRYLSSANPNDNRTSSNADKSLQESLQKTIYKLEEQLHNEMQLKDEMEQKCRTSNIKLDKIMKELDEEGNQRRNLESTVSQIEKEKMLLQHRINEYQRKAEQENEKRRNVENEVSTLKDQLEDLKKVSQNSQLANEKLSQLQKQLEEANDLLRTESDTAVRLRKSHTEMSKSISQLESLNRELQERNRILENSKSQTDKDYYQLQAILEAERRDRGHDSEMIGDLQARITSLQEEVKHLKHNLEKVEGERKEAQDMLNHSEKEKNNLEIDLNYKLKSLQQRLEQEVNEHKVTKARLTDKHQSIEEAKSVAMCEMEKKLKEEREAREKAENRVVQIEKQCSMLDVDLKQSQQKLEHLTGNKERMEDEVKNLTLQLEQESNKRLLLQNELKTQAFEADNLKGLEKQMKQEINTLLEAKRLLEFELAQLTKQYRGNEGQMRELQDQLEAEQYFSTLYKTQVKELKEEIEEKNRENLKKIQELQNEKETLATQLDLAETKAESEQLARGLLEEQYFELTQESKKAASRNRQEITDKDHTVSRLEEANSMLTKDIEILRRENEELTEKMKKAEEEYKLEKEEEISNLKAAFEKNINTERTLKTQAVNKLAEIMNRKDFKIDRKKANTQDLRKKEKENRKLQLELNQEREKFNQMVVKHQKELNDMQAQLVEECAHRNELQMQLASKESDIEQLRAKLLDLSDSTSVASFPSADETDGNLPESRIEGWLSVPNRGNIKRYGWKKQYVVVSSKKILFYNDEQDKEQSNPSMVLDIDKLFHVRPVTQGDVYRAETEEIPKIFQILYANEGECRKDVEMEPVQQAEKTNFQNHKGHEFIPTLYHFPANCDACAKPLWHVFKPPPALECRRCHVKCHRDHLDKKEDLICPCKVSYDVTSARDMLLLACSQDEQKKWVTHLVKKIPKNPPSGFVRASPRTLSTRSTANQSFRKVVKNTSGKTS

Where [4] appears, read: Table 6, enzyme inhibition data (Ki).
Where [5] appears, read: enzyme inhibition, Ki(app), Table 5.

Sequence of JAK2 (O60674 whole entry): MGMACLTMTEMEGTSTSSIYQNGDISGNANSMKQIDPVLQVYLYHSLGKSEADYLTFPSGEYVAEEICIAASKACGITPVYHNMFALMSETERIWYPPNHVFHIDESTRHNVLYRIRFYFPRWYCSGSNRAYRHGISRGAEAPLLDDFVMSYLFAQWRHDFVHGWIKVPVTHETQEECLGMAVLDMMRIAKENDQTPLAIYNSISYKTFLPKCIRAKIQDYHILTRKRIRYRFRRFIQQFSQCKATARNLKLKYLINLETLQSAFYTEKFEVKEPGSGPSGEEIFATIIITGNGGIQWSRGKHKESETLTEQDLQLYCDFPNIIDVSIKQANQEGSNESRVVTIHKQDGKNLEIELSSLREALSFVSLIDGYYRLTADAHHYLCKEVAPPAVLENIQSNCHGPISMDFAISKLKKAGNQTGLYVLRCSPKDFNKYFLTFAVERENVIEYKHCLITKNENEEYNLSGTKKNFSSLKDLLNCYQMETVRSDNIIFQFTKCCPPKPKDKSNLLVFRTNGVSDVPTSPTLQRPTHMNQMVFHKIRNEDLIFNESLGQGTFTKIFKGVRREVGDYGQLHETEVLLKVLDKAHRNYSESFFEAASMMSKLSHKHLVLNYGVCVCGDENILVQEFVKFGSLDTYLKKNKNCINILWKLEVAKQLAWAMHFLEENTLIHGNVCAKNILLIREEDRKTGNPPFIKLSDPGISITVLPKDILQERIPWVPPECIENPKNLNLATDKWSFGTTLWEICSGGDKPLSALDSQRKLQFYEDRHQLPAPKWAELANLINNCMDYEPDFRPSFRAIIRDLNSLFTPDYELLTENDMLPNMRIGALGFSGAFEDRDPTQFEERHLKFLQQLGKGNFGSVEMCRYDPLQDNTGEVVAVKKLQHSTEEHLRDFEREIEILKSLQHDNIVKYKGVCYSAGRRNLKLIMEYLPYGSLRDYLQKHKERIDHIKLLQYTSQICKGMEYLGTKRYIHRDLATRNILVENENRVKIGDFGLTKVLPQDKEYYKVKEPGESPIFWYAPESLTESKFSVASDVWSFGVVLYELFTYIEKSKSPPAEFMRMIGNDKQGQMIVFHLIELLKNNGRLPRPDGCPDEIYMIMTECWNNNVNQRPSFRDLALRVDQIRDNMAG

On to `CC(C)CN(CC(C)C)C(=O)c1ccc(-c2ccnc3[nH]ccc23)s1` [compound 327], for which the Ki in assay [1] (setting [4]) is 500 to 5000 nM; in assay [2] (setting [4]), under 500 nM; in assay [3] (setting [4]), under 500 nM.

As to `O=C(c1cc(-c2c(Cl)cnc3[nH]ccc23)c[nH]1)N1CCCC1CO` (stereo not drawn) [compound 346], the values for the Ki in assay [1] (setting [4]), in assay [2] (setting [4]) and in assay [3] (setting [4]) were under 500 nM, under 500 nM and over 4000 nM, respectively.

For `O=C(NCC(F)(F)F)c1cc(-c2ccnc3[nH]ccc23)c[nH]1` [compound 259], the Ki in assay [1] (setting [4]), in assay [2] (setting [4]) and in assay [3] (setting [4]) was under 500 nM each time.

For the molecule `CCC(CC)NC(=O)c1cc(-c2ccnc3[nH]ccc23)c[nH]1` [compound 284], the Ki in assay [1] (setting [4]), in assay [2] (setting [4]) and in assay [3] (setting [4]) was under 500 nM in each case.

As for `COc1cc(-c2ccnc3[nH]ccc23)cc(OC)c1OC` [compound 40, 4-(3,4,5-Trimethoxy-phenyl)-1H-pyrrolo[2,3-b]pyridine], the Ki in assay [1] (enzyme inhibition, Table 5) was 500 to 5000 nM; in assay [2] (enzyme inhibition, Table 5), 500 to 5000 nM; in assay [3] (setting [5]), 500 to 5000 nM.

On to `O=C(Nc1cccc(-c2ccnc3[nH]ccc23)n1)c1ccccc1` [compound 100, N-(6-(1H-pyrrolo[2,3-b]pyridine-4-yl)pyridin-2-yl)benzamide], for which the Ki in assay [1] (enzyme inhibition, Table 5) is 500 to 5000 nM; in assay [2] (enzyme inhibition, Table 5) it was under 500 nM; in assay [3] (setting [5]), 500 to 5000 nM.

As to `C=CCN(C(=O)c1csc(-c2ccnc3[nH]ccc23)n1)C1CCCC1` [compound 410], the Ki in assay [1] (setting [4]), in assay [2] (setting [4]) and in assay [3] (setting [4]) was under 500 nM throughout.

Consider `CN(C)CCN(C)c1cccc(-c2c(Cl)cnc3[nH]ccc23)n1` [compound 83], for which the Ki in assay [1] (enzyme inhibition, Table 5) was under 500 nM; in assay [2] (enzyme inhibition, Table 5) it was under 500 nM; in assay [3] (setting [5]) it was 500 to 5000 nM.

Turning to `CCNC(=O)c1ccc(-c2ccnc3[nH]ccc23)cc1` [compound 273], the Ki is 500 to 5000 nM in assay [1] (setting [4]), under 500 nM in assay [2] (setting [4]) and 500 to 5000 nM in assay [3] (setting [4]).

Consider `CC(C)(C)OCc1ccccc1-c1ccnc2[nH]ccc12` [compound 232], for which the Ki in assay [1] (setting [4]) is over 5000 nM; in assay [2] (setting [4]), over 5000 nM; in assay [3] (setting [4]), over 4000 nM.

In the case of `N#CCCN(Cc1ccccc1)C(=O)c1ccc(-c2ccnc3[nH]ccc23)s1` [compound 328], the Ki in assay [1] (setting [4]), in assay [2] (setting [4]) and in assay [3] (setting [4]) was under 500 nM throughout.

Turning to `c1cc(-c2ccoc2)c2cc[nH]c2n1` [compound 133, 4-Furan-3-yl-1H-pyrrolo[2,3-b]pyridine], the Ki in assay [1] (enzyme inhibition, Table 5) was 500 to 5000 nM; in assay [2] (enzyme inhibition, Table 5) it was under 500 nM; in assay [3] (setting [5]), under 500 nM.

As for `CN1CCN(C(=O)c2cccc(-c3ccnc4[nH]ccc34)c2)CC1` [compound 95, (4-Methyl-piperazin-1-yl)-[3-(1H-pyrrolo[2,3-b]pyridin-4-yl)-phenyl]-methanone], the Ki was over 5000 nM in assay [1] (enzyme inhibition, Table 5); over 5000 nM in assay [2] (enzyme inhibition, Table 5); 500 to 5000 nM in assay [3] (setting [5]).

Turning to `C[C@H](Nc1ccnc(-c2ccnc3[nH]ccc23)n1)C(=O)NC1CC1` [compound 130], the Ki in assay [1] (enzyme inhibition, Table 5) is 500 to 5000 nM; in assay [2] (enzyme inhibition, Table 5), 500 to 5000 nM; in assay [3] (setting [5]) it was 500 to 5000 nM.

As for `Clc1ccc(-c2ccnc3[nH]ccc23)c(Cl)c1` [compound 210], the Ki is 500 to 5000 nM in assay [1] (setting [4]), 500 to 5000 nM in assay [2] (setting [4]) and under 500 nM in assay [3] (setting [4]).

As to `CS(=O)(=O)Nc1ccccc1-c1ccnc2[nH]ccc12` [compound 247], the Ki in assay [1] (setting [4]) is over 5000 nM; in assay [2] (setting [4]), over 5000 nM; in assay [3] (setting [4]), over 4000 nM.

As for `CNC(=O)c1cccc(-c2ccnc3[nH]ccc23)c1` [compound 91, N-Methyl-3-(1H-pyrrolo[2,3-b]pyridin-4-yl)-benzamide], the Ki in assay [1] (enzyme inhibition, Table 5) was in the range of 500 to 5000 nM; in assay [2] (enzyme inhibition, Table 5), 500 to 5000 nM; in assay [3] (setting [5]), 500 to 5000 nM.

For the molecule `CCN(Cc1ccccn1)C(=O)c1ccc(-c2ccnc3[nH]ccc23)s1` [compound 318], the Ki in assay [1] (setting [4]), in assay [2] (setting [4]) and in assay [3] (setting [4]) was under 500 nM throughout.

For the molecule `C[C@@H](Nc1nc(-c2ccnc3[nH]ccc23)ncc1F)C(=O)NCC(F)(F)F` [compound 201], the figures for the Ki in assay [1] (setting [4]), in assay [2] (setting [4]) and in assay [3] (setting [4]) were under 500 nM, 500 to 5000 nM and over 4000 nM, respectively.

For `CC(=O)N1[C@H](C)CN(c2cccc(-c3ccnc4[nH]ccc34)n2)C[C@@H]1C` [compound 22], the Ki is under 500 nM in assay [1] (enzyme inhibition, Table 5); under 500 nM in assay [2] (enzyme inhibition, Table 5); 500 to 5000 nM in assay [3] (setting [5]).

Consider `N#CCCN(Cc1ccccc1)C(=O)c1cc(-c2ccnc3[nH]ccc23)c[nH]1` [compound 312], for which the Ki in assay [1] (setting [4]), in assay [2] (setting [4]) and in assay [3] (setting [4]) was under 500 nM throughout.

Take `CC[C@H](C)NC(=O)c1cc(-c2ccnc3[nH]ccc23)c[nH]1` [compound 290]: the Ki in assay [1] (setting [4]) is 500 to 5000 nM; in assay [2] (setting [4]), under 500 nM; in assay [3] (setting [4]), under 500 nM.

Regarding `CN(C)CCCN(C)C(=O)c1cc(-c2ccnc3[nH]ccc23)c[nH]1` [compound 365], the Ki was 500 to 5000 nM in assay [1] (setting [4]), 500 to 5000 nM in assay [2] (setting [4]) and under 500 nM in assay [3] (setting [4]).

As to `O=C(NCCC(F)(F)F)c1ccccc1-c1ccnc2[nH]ccc12` [compound 254], the Ki was over 5000 nM in assay [1] (setting [4]), over 5000 nM in assay [2] (setting [4]) and over 4000 nM in assay [3] (setting [4]).

As for `CCN(CC)c1cccc(-c2ccnc3[nH]ccc23)n1` [compound 52, N,N-Diethyl-6-(1H-pyrrolo[2,3-b]pyridin-4-yl)pyridin-2-amine], the Ki in assay [1] (enzyme inhibition, Table 5) is under 500 nM; in assay [2] (enzyme inhibition, Table 5), under 500 nM; in assay [3] (setting [5]), under 500 nM.

Turning to `Clc1cnc2[nH]ccc2c1-c1cccs1` [compound 135], the Ki in assay [1] (setting [4]), in assay [2] (setting [4]) and in assay [3] (setting [4]) was under 500 nM each time.

With `CCCN(CCC#N)C(=O)c1cc(-c2c(F)cnc3[nH]ccc23)c[nH]1` [compound 396], the Ki in assay [1] (setting [4]), in assay [2] (setting [4]) and in assay [3] (setting [4]) was under 500 nM in each case.

For the molecule `C=CCN(CC=C)C(=O)c1cc(-c2c(Cl)cnc3[nH]ccc23)c[nH]1` [compound 330], the values for the Ki in assay [1] (setting [4]), in assay [2] (setting [4]) and in assay [3] (setting [4]) were under 500 nM, under 500 nM and 500 to 5000 nM, respectively.

Turning to `CNCc1cccc(-c2ccnc3[nH]ccc23)c1` [compound 84, Methyl-[3-(1H-pyrrolo[2,3-b]pyridin-4-yl)-benzyl]-amine], the Ki in assay [1] (enzyme inhibition, Table 5) was 500 to 5000 nM; in assay [2] (enzyme inhibition, Table 5), 500 to 5000 nM; in assay [3] (setting [5]), under 500 nM.

Take `CCOC(=O)C1CCN(C(=O)c2cc(-c3c(Cl)cnc4[nH]ccc34)c[nH]2)CC1` [compound 348]: the Ki is 500 to 5000 nM in assay [1] (setting [4]), 500 to 5000 nM in assay [2] (setting [4]) and over 4000 nM in assay [3] (setting [4]).

With `O=C(Cn1ccc2cnc(-c3ccnc4[nH]ccc34)nc21)NCC(F)(F)F` [compound 424], the Ki was under 500 nM in assay [1] (setting [4]), under 500 nM in assay [2] (setting [4]) and over 4000 nM in assay [3] (setting [4]).

As for `CCCN(CCC#N)C(=O)c1ccc(-c2ccnc3[nH]ccc23)s1` [compound 320], the Ki in assay [1] (setting [4]), in assay [2] (setting [4]) and in assay [3] (setting [4]) was under 500 nM throughout.

As to `CS(=O)(=O)N1CC[C@H](Nc2c(Cl)cnc3[nH]ccc23)C1` [compound 185], the results for the Ki in assay [1] (setting [4]), in assay [2] (setting [4]) and in assay [3] (setting [4]) were under 500 nM, under 500 nM and over 4000 nM, respectively.

For `CCN(Cc1ccccc1)C(=O)c1cc(-c2c(Cl)cnc3[nH]ccc23)c[nH]1` [compound 344], the Ki is under 500 nM in assay [1] (setting [4]), under 500 nM in assay [2] (setting [4]) and 500 to 5000 nM in assay [3] (setting [4]).
